This assay concerns the target T1, GPR23 (Homo sapiens, UniProt Q99677).
T1 construct: gene LPAR4; native receptor in U87 glioma cell membranes; control vs GPR23-siRNA silenced
Briefly: [3H]-guanine radioligand saturation binding on U87 membranes; Bmax falls on GPR23 silencing.

Each structure is given as a SMILES string.

T1 sequence (Q99677 whole entry): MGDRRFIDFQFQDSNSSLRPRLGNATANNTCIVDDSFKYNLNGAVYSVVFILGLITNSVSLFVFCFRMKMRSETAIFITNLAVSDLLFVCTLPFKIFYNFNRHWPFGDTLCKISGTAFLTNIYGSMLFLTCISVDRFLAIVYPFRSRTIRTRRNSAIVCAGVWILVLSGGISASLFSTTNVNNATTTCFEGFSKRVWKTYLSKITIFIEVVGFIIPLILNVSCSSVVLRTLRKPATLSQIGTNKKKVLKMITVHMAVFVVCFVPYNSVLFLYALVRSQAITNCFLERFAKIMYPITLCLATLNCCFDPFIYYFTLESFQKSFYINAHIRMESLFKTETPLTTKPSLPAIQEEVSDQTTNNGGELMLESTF

By Kd is commonly meant the free concentration of one partner at which half of the binding sites on the other are occupied at equilibrium, for simple one-to-one binding. `Nc1nc2nc[nH]c2c(=O)[nH]1` [GUA, guanine] showed a Kd of 29.4 ± 4.07 nM.
